The record followed here is US10973840B2, “Methods of sensitizing tumor cells to weak base chemotherapeutic drugs” (SOCPRA SCIENCES SANTÉ ET HUMAINES S.E.C., priority 2017, dated 2021).

pIC50: −log10 of the molar value. Like-named read-outs stand apart in the source and are kept apart here.

Common to all, as to format: cell-based, human
Experiment [1] deals with HT-1080 cells. Kind of experiment: Intracellular pH measurement (HPTS/SNARF-1) by confocal microscopy, HT-1080. The following applies: HT-1080, 1% O2, 4 h; for effect on hypoxia-induced intravesicular acidification: Baf 100 nM, Cq 10 μM. Here is the method: (§1) The pH sensing ratiometric dyes SNARF-1 and HPTS (Life Technologies) were used simultaneously for pH measurement of both cytoplasmic (C-SNARF-1) and endosomal/lysosomal (HPTS) compartments as previously described^30. Briefly, cells were cultured in 35 mm petri dishes (BD Biosciences) and used at 50% confluence. For endocytic labeling, cells were incubated overnight with HPTS (1 mM), washed, followed by a 20-min incubation with SNARF-1 (5 μM) to label the cytoplasmic compartment. Living cells were analyzed using an Olympus Fluoview™ FV1000 confocal microscope. Fluorescence emissions of both pH-sensing probes were recorded and subsequently analyzed as described^30.

The test system of experiment [2] is HT-1080 cells. Description: Intracellular localization of Dox by confocal live-cell imaging, HT-1080. The following applies: for effect on hypoxia-induced Dox sequestration within endosomes: HT-1080, 1% O2, Cq 10 μM, Baf 100 nM. The protocol: (§2) Cells were cultured in 25 mm-diameter glass coverslips (Thermo Fisher Scientific) and incubated under various conditions (as indicated in the FIG. legends). Cells were then incubated for 2 h in a medium containing Dox (2 μM). After the incubation period, cells were washed to remove excess Dox and left in drug-free media for 10 min. […] Coverslips were mounted on glass slides and placed on a 37° C. warmed stage of an Olympus Fluoview™ FV1000 (Olympus, Tokyo, Japan) confocal laser scanning microscope. Dox was excited with a green helium neon laser (543 nm) and emitted fluorescence intensity was measured. Images were acquired on the same day, typically from 10-20 cells of similar size from each experimental condition, using identical instrument settings.

For experiment [3], the system named is MDA-MB-231 cells. Kind of experiment: Intracellular localization of Dox by confocal live-cell imaging, MDA-MB-231. The following applies: MDA-MB-231, 1% O2; Cq 10 μM, Baf 100 nM. Here is the method:
as §2

The test system of experiment [4] is MDA-MB-231 cells. Kind of experiment: Intracellular pH measurement (HPTS/SNARF-1) by confocal microscopy, MDA-MB-231. The conditions noted are these: MDA-MB-231, 1% O2, 4 h; for effect on hypoxia-induced intravesicular acidification: Baf 100 nM, Cq 10 μM. The protocol:
as §1

In experiment [5] the test system is MDA-MB-231 breast cancer cells. Kind of experiment: MTT cell viability assay, MDA-MB-231. The conditions noted are these: for pIC50: Homo sapiens, MDA-MB-231, 72 h; for Fold change: MDA-MB-231, IC50 at 1% O2 to IC50 at 21% O2. The protocol:
(§3) Cells (5×10^3) were cultured in 96-well plates and pre-incubated under 21% O2 or 1% O2 for 4 h following the addition of drugs for 72 h. Cell viability was measured using the 3-(4,5-dimethylthiazol-2-yl)-2,5-diphenyltetrazolium bromide (MTT) dye (Life Technologies) according to manufacturer's instructions. Because hypoxic conditions may affect the reduction of MTT to formazan, incubation of all cell cultures with MTT were performed under normoxic conditions. Each experiment was performed in triplicate and at least three independent experiments were performed. Log-scale dose-response data were plotted on a graph and a three-parameter non-linear regression was applied to determine IC50 values. For calculation of the IC50s, both normoxic and hypoxic drug-treated samples were normalized with their untreated counterpart.
(§4) To assess the role of pH in hypoxia-induced resistance to anthracyclines, the human breast cancer MDA-MB-231 and fibrosarcoma HT-1080 cell lines were incubated in the presence or absence of the commonly used anthracycline drugs, doxorubicin (Dox), daunorubicin (Dau) and the anthracycline analog drug, mitoxantrone (Mtx), under hypoxic (1% O2) or normoxic (21% O2) conditions for 72 hours. Cell viability was then assessed using the MTT assay. The impact of extracellular pH on Dox uptake by HT-1080 was also assessed.

In experiment [6] the test system is HT-1080 fibrosarcoma cells. Description: MTT cell viability assay, HT-1080. The conditions noted are these: for Fold change: HT-1080, IC50 at 1% O2 to IC50 at 21% O2; for increase in resistance toward the drug by hypoxia: HT-1080 cells (so in the source), 1% O2 vs 21% O2; for pIC50: Homo sapiens, HT-1080, 72 h. The protocol: as §3, §4
The test system of experiment [7] is NHE6. Description: NHE6 localization (cell-surface biotinylation, EEA1 immunofluorescence) in HT-1080. Here is the method: Biotinylation steps were performed at […] Cells were grown on circular 15-mm diameter glass coverslips (Thermo Fisher Scientific) and incubated at 21% or 1% O2. Cells were then washed with PBS containing 1 mM CaCl2 and 0.5 mM MgCl2 (PBSCM) and incubated for 5 min with 0.3 mg/ml of EZ-Link Sulfo-NHS-SS-Biotin (Pierce) in PBSCM. Unreacted biotin was quenched using 100 mM glycine. Cells were fixed for 10 min at room temperature using 1% PFA in PBS. Prior to staining, cells were blocked with 5% of BSA for 1 h at room temperature. Biotinylated cells were stained with 5 μg/ml Streptavidin Texas Red (Invitrogen) for 1 h at 4° C. Coverslips were washed and mounted on a microscope slide using Vectashield mounting media (Vector labs).
Cultured cells were fixed with 1% PFA for 10 min at room temperature, permeabilized with saponin (0.05% in PBS) for 20 min, and blocked with 2% BSA in PBS for 30 min. Cells were then incubated with the appropriate primary and secondary antibodies as follows: anti-EEA1 (1/500), anti-Rab7 (1/500) and fluorophore-conjugated secondary antibodies (1/1000). Images were recorded using an Olympus Fluoview™ FV1000 confocal microscope using a 63× oil immersion objective.

In experiment [8] the test system is NHE6-RACK1 interaction. Description: Co-immunoprecipitation of NHE6 with RACK1 in HT-1080. The conditions noted are these: HT-1080, PDBu 100 nM. Here is the method:
Cells were lysed on ice in NP-40-containing buffer (50 mM Tris-HCl pH 8.0, 150 mM NaCl, 1% NP-40, 5 mM EDTA, phosphatase and protease inhibitors). Cell lysates were centrifuged at 13,000 rpm at 4° C. and protein concentration determined using the BCA protein assay (Thermo Fisher Scientific). After a pre-clearing step with protein A/G-agarose beads (GE Healthcare), protein complexes were immunoprecipitated overnight at 4° C. Samples were incubated in SDS-loading buffer for 30 minutes at room temperature to avoid transmembrane protein aggregates upon heating in a boiling water bath. Proteins were separated by SDS-PAGE electrophoresis, transferred to a PVDF membrane and immunoblotting was performed as described, using anti-NHE6 (1:1000), anti-NHE9 (1:1000) anti-RACK1 (1:2000), anti-tubulin (1:5000), anti-actin (1:5000) anti-HA (1:1000), anti-PKC (1:200), anti-phospho PKC substrate (1:1000), anti-LAMP2 (1:200), anti-P-glycoprotein (1:200) and HRP-conjugated secondary antibodies (1/10 000)^66.

Take `CO/C1=C\C(C)=C\[C@@H](C)[C@@H](O)[C@@H](C)C/C(C)=C/C=C/[C@H](OC)[C@@H]([C@@H](C)[C@@H](O)[C@H](C)[C@@]2(O)C[C@@H](O)[C@H](C)[C@@H](C(C)C)O2)OC1=O` [Baf, bafilomycin A1]: the “effect on hypoxia-induced intravesicular acidification” value in experiment [1] and in experiment [4] was “prevented” in each case. Moreover, the “effect on hypoxia-induced Dox sequestration within endosomes” value in experiment [2] and in experiment [3] was “abolished hypoxia-induced Dox sequestration within endosomes” in each case.
With `CCN(CC)CCCC(C)Nc1ccnc2cc(Cl)ccc12` (centres unmarked) [Cq, chloroquine], the “effect on hypoxia-induced intravesicular acidification” value in experiment [1] and in experiment [4] was “prevented” each time. The “effect on hypoxia-induced Dox sequestration within endosomes” value in experiment [2] and in experiment [3] was “abolished hypoxia-induced Dox sequestration within endosomes” each time.
`COc1cccc2c1C(=O)c1c(O)c3c(c(O)c1C2=O)C[C@@](O)(C(C)=O)C[C@@H]3O[C@H]1C[C@H](N)[C@H](O)[C@H](C)O1` [Dau, daunorubicin]: the pIC50 was 6.04 in experiment [5] (read-out: IC50 of anthracyclines, MDA-MB-231, 1% O2, 72 h); 6.70 in experiment [5] (read-out: IC50 of anthracyclines, MDA-MB-231, 21% O2, 72 h); 6.09 in experiment [6] (read-out: IC50 of anthracyclines, HT-1080, 1% O2, 72 h); 6.99 in experiment [6] (read-out: IC50 of anthracyclines, HT-1080, 21% O2, 72 h). The Fold change in experiment [5] is reported as 4.7 fold; in experiment [6], 8.1 fold. The “increase in resistance toward the drug by hypoxia” value in experiment [6] worked out at 4.7 fold.
Take `CCN(c1nc(N)c(C(=O)NC(=N)N)nc1Cl)C(C)C` [EIPA]: the “effect on hypoxia-induced increase in cytosolic pH” value in experiment [1] (EIPA 25 μM) and in experiment [4] (EIPA 25 μM) was “prevented” throughout.
In the case of `CN(C)CCCn1cc(C2=C(c3c[nH]c4ccccc34)C(=O)NC2=O)c2ccccc21` [GF109203X], the “endosomal/lysosomal pH under hypoxic conditions” value in experiment [1] (PKC inhibition (GF-109203x 200 nM)) was “partial recovery of normal pH values”. Also, the “Dox within the nucleus” value in experiment [2] (HT-1080, 1% O2, PKC inhibition (GF-109203x 200 nM)) is reported as “promoted the accumulation of Dox in the nuclear compartment”. In addition, the “hypoxia-induced NHE6 relocalization” value in experiment [7] (HT-1080, 1% O2, 4 h, GF-109203x 200 nM) is “blocked”.
As for `O=C1c2c(O)ccc(O)c2C(=O)c2c(NCCNCCO)ccc(NCCNCCO)c21` [Mtx, mitoxantrone], the pIC50 in experiment [5] (MDA-MB-231, 1% O2, 72 h, read-out: IC50 of anthracyclines) is 6.12; in experiment [5] (MDA-MB-231, 21% O2, 72 h, read-out: IC50 of anthracyclines), 6.82; in experiment [6] (HT-1080, 1% O2, 72 h, read-out: IC50 of anthracyclines), 6.35; in experiment [6] (HT-1080, 21% O2, 72 h, read-out: IC50 of anthracyclines), 7.03. The Fold change in experiment [5] stood at 5.0 fold; in experiment [6], 4.9 fold. Besides, in experiment [6], the “increase in resistance toward the drug by hypoxia” value came out at 5.0 fold.
On to `CCCC(=O)O[C@@H]1[C@@H](C)[C@@]2(O)[C@@H](C=C(CO)C[C@]3(O)C(=O)C(C)=C[C@@H]23)[C@@H]2C(C)(C)[C@]12OC(=O)CCC` [PDBu, phorbol-12,13-dibutyrate], for which the “association of NHE6 with RACK1” value in experiment [8] is on record as “promoted”. Moreover, the “relocalization of NHE6 from endosomes to the plasma membrane” value in experiment [7] (HT-1080, normoxia, PDBu 100 nM) is “promoted”.
